Source: ChEMBL document CHEMBL1221321, “Synthesis and properties of macrolones characterized by two ether bonds in the linker” (Bioorg Med Chem, 2010)
Values after ≈ are worked out from the molar mass of the structure shown.

Legend:
THP-1 = experiment: Cytotoxicity against human THP1 cells after 24 hrs by MTS assay; format: cell-based; settings: THP-1, 24 h
HepG2 = experiment: Cytotoxicity against human HepG2 cells after 24 hrs by MTS assay; format: cell-based; settings: HepG2, 24 h
Haemophilus influenzae = experiment: Antibacterial activity against Haemophilus influenzae ATCC 49247 by broth microdilution method; format: functional
Streptococcus pyogenes [1] = experiment: Antibacterial activity against constitutive MLS resistance Streptococcus pyogenes 166 GR-Micro by broth microdilution method; format: functional
Streptococcus pneumoniae [2] = experiment: Antibacterial activity against constitutive MLS resistance Streptococcus pneumoniae 58 by broth microdilution method; format: functional
Streptococcus pyogenes [3] = experiment: Antibacterial activity against efflux-mediated macrolide-resistance Streptococcus pyogenes 2 by broth microdilution method; format: functional
Streptococcus pneumoniae [4] = experiment: Antibacterial activity against efflux-mediated macrolide-resistance Streptococcus pneumoniae Ci137 by broth microdilution method; format: functional; settings: read-out: MIC
Staphylococcus aureus [5] = experiment: Antibacterial activity against efflux-mediated macrolide-resistance Staphylococcus aureus PK1 by broth microdilution method; format: functional
Streptococcus pyogenes [6] = experiment: Antibacterial activity against inducible resistance to macrolide, licosamide and streptogramin Streptococcus pyogenes 11 by broth microdilution method; format: functional; settings: read-out: MIC
Streptococcus pneumoniae [7] = experiment: Antibacterial activity against inducible resistance to macrolide and constitutive resistance to lincosamide Streptococcus pneumoniae 134 GR M by broth microdilution method; format: functional
Staphylococcus aureus [8] = experiment: Antibacterial activity against inducible resistance to macrolide, licosamide, and streptogramin Staphylococcus aureus 90265/97 by broth microdilution method; format: functional

SMILES	IC50 (THP-1)	IC50 (HepG2)	MIC (Haemophilus influenzae)	MIC (Streptococcus pyogenes [1])	MIC (Streptococcus pneumoniae [2])	MIC (Streptococcus pyogenes [3])	MIC (Streptococcus pneumoniae [4])	MIC (Staphylococcus aureus [5])	MIC (Streptococcus pyogenes [6])	MIC (Streptococcus pneumoniae [7])	MIC (Staphylococcus aureus [8])
CC[C@H]1OC(=O)[C@H](C)[C@@H](O[C@H]2C[C@@](C)(OC)[C@@H](OCCCOCCCc3ccc4c(c3)c(=O)c(C(=O)O)cn4C(C)C)[C@H](C)O2)[C@H](C)[C@@H](O[C@@H]2O[C@H](C)C[C@H](N(C)C)[C@H]2O)[C@](C)(O)C[C@@H](C)CN(C)[C@H](C)[C@@H](O)[C@]1(C)O	46 µM	> 50 µM	4 µg/mL (≈ 3.71 µM)	≤ 0.125 µg/mL	≤ 0.125 µg/mL	≤ 0.125 µg/mL	≤ 0.125 µg/mL	≤ 0.125 µg/mL	≤ 0.125 µg/mL	< 0.125 µg/mL	≤ 0.125 µg/mL
CC[C@H]1OC(=O)[C@H](C)[C@@H](O[C@H]2C[C@@](C)(OC)[C@@H](OCCCOCCCc3ccc4c(c3)c(=O)c(C(=O)O)cn4N(C)C)[C@H](C)O2)[C@H](C)[C@@H](O[C@@H]2O[C@H](C)C[C@H](N(C)C)[C@H]2O)[C@](C)(O)C[C@@H](C)CN(C)[C@H](C)[C@@H](O)[C@]1(C)O	48 µM	> 50 µM	2 µg/mL (≈ 1.85 µM)	≤ 0.125 µg/mL	≤ 0.125 µg/mL	≤ 0.125 µg/mL	≤ 0.125 µg/mL	≤ 0.125 µg/mL	≤ 0.125 µg/mL	0.25 µg/mL (≈ 0.232 µM)	≤ 0.125 µg/mL
CC[C@H]1OC(=O)[C@H](C)[C@@H](O[C@H]2C[C@@](C)(OC)[C@@H](OCCCOCCCc3cc4c5c(c3)c(=O)c(C(=O)O)cn5C(C)(C)OC4)[C@H](C)O2)[C@H](C)[C@@H](O[C@@H]2O[C@H](C)C[C@H](N(C)C)[C@H]2O)[C@](C)(O)C[C@@H](C)CN(C)[C@H](C)[C@@H](O)[C@]1(C)O	40 µM	> 50 µM	1 µg/mL (≈ 0.904 µM)	≤ 0.125 µg/mL	≤ 0.125 µg/mL	≤ 0.125 µg/mL	≤ 0.125 µg/mL	≤ 0.125 µg/mL	≤ 0.125 µg/mL	≤ 0.125 µg/mL	≤ 0.125 µg/mL
CCCCn1cc(C(=O)O)c(=O)c2cc(CCCOCCCO[C@H]3[C@H](C)O[C@@H](O[C@H]4[C@H](C)[C@@H](O[C@@H]5O[C@H](C)C[C@H](N(C)C)[C@H]5O)[C@](C)(O)C[C@@H](C)CN(C)[C@H](C)[C@@H](O)[C@](C)(O)[C@@H](CC)OC(=O)[C@@H]4C)C[C@@]3(C)OC)ccc21	27 µM	49 µM	1 µg/mL (≈ 0.915 µM)	≤ 0.125 µg/mL	≤ 0.125 µg/mL	≤ 0.125 µg/mL	≤ 0.125 µg/mL	≤ 0.125 µg/mL	≤ 0.125 µg/mL	≤ 0.125 µg/mL	≤ 0.125 µg/mL
CC[C@H]1OC(=O)[C@H](C)[C@@H](O[C@H]2CC(C)(OC)[C@@H](OCCCOCCCc3ccc4c(c3)c(=O)c(C(=O)O)cn4C(C)(C)C)[C@H](C)O2)[C@H](C)[C@@H](O[C@@H]2O[C@H](C)C[C@H](N(C)C)[C@H]2O)[C@](C)(O)C[C@@H](C)CN(C)[C@H](C)[C@@H](O)[C@]1(C)O (stereo partly drawn)	40 µM	> 50 µM	2 µg/mL (≈ 1.83 µM)	≤ 0.125 µg/mL	≤ 0.125 µg/mL	≤ 0.125 µg/mL	≤ 0.125 µg/mL	≤ 0.125 µg/mL	≤ 0.125 µg/mL	≤ 0.125 µg/mL	≤ 0.125 µg/mL
CC[C@H]1OC(=O)[C@H](C)[C@@H](O[C@H]2C[C@@](C)(OC)[C@@H](OCCCOCCCc3ccc4c(c3)c(=O)c(C(=O)O)cn4CCN(C)C)[C@H](C)O2)[C@H](C)[C@@H](O[C@@H]2O[C@H](C)C[C@H](N(C)C)[C@H]2O)[C@](C)(O)C[C@@H](C)CN(C)[C@H](C)[C@@H](O)[C@]1(C)O	> 50 µM	> 50 µM	4 µg/mL (≈ 3.61 µM)	1 µg/mL (≈ 0.903 µM)	≤ 0.125 µg/mL	0.25 µg/mL (≈ 0.226 µM)	≤ 0.125 µg/mL	≤ 0.125 µg/mL	≤ 0.125 µg/mL	0.25 µg/mL (≈ 0.226 µM)	≤ 0.125 µg/mL
CC[C@H]1OC(=O)[C@H](C)[C@@H](O[C@H]2C[C@@](C)(OC)[C@@H](OCCCOCCCc3ccc4c(c3)c(=O)c(C(=O)O)cn4CCOC)[C@H](C)O2)[C@H](C)[C@@H](O[C@@H]2O[C@H](C)C[C@H](N(C)C)[C@H]2O)[C@](C)(O)C[C@@H](C)CN(C)[C@H](C)[C@@H](O)[C@]1(C)O	> 50 µM	> 50 µM	2 µg/mL (≈ 1.83 µM)	≤ 0.125 µg/mL	≤ 0.125 µg/mL	≤ 0.125 µg/mL	≤ 0.125 µg/mL	≤ 0.125 µg/mL	≤ 0.125 µg/mL	≤ 0.125 µg/mL	≤ 0.125 µg/mL
CC[C@H]1OC(=O)[C@H](C)[C@@H](O[C@H]2C[C@@](C)(OC)[C@@H](OCCCOCCCCc3cc4c5c(c3)c(=O)c(C(=O)O)cn5C(C)(C)CO4)[C@H](C)O2)[C@H](C)[C@@H](O[C@@H]2O[C@H](C)C[C@H](N(C)C)[C@H]2O)[C@](C)(O)C[C@@H](C)CN(C)[C@H](C)[C@@H](O)[C@]1(C)O	11 µM	46 µM	1 µg/mL (≈ 0.893 µM)	0.5 µg/mL (≈ 0.446 µM)	≤ 0.125 µg/mL	≤ 0.125 µg/mL	≤ 0.125 µg/mL	≤ 0.125 µg/mL	≤ 0.125 µg/mL	0.5 µg/mL (≈ 0.446 µM)	≤ 0.125 µg/mL
